What was measured:
Human EDG-1 = target: T1, Human EDG-1 (Homo sapiens, UniProt P21453); test: Agonistic activity against EDG by monitoring changes in intracellular calcium ion [Ca^2+]i concentration; type: cell-based; settings: Human EDG-1 overexpressing CHO cells; Fura2-AM; control 100 nM S1P; read-out: EC50 of agonistic activity against EDG-1 (increase ratio of intracellular calcium ion concentration)
T1 construct: expressed in transfected cells; host or cells: CHO cells
Description: Evaluation of an Agonistic Activity Against EDG of the Compound of the Present Invention by Monitoring Changes in Intracellular Calcium Ion [Ca^2+]i Concentration
Human EDG-1, EDG-3, EDG-5 or EDG-8 gene overexpressing CHO cells were cultured in Ham's F12 medium (manufactured by GIBCO BRL) containing 10% FBS (fetal bovine serum), penicillin/streptomycin and blasticidin (5 μg/ml). The cultured cells were incubated in a 5 μM Fura2-AM solution (Ham's F12 medium containing 10% of FBS, 20 mM HEPES buffer (pH7.4), and 2.5 mM probenecid) at 37° C. for 60 minutes. After washing once with Hanks solution containing 20 mM HEPES buffer (pH7.4), and 2.5 mM probenecid, the plate was soaked in the same solution until assay. Then, the plate was set on a fluorescent drug screening system (FDSS 6000; Hamamatsu Photonics) and the intracellular calcium ion concentration was measured without stimulation for 30 seconds. A test compound (final concentration: 1 nM to 10 μM, dimethylsulfoxide (DMSO) solution) was added and S1P (final concentration: 100 nM) was added 5 minutes thereafter. Then, the increase in the intracellular calcium ion concentration was measured before and after the addition of S1P at intervals of 3 seconds (excitation wavelength: 340 nm and 380 nm, fluorescence wavelength: 500 nm). […]

EDG-6 = target: T2, EDG-6 (Homo sapiens, UniProt O95977); test: Inhibitory activity on binding of [^3H]-PhS1P to EDG-6; settings: cell membrane fraction of EDG-6-overexpressing CHO cell; 10 nmol/L [^3H]-PhS1P solution; read-out: IC50 of inhibition of binding of [^3H]-PhS1P to EDG-6
T2 construct: expressed in transfected cells; host or cells: Chinese Hamster Ovary (CHO) cells, membrane fraction
T2 sequence (O95977 1-384): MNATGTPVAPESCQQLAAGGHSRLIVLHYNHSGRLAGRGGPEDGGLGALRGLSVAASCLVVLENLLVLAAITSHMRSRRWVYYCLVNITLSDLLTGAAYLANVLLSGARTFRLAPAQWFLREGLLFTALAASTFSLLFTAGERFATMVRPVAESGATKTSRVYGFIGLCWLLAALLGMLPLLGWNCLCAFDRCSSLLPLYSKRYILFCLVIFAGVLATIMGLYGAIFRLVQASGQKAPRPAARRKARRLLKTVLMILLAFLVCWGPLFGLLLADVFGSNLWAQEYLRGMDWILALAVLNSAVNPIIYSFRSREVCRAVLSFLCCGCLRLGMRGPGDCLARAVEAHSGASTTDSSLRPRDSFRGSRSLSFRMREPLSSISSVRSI
Description: Measurement of Inhibitory Activity of the Compound of the Present Invention on Binding of [^3H]-PhS1P to EDG-6
By using cell membrane fraction of an EDG-6-overexpressing Chinese Hamster Ovary (CHO) cell and 1 mg protein/mL of the membrane fraction, reaction was carried out in a 96-well plate. Into each well, 80 μL of a vehicle (DMSO) solution diluted with 2× binding buffer (100 mmol/L Tris pH 7.5, 200 mM NaCl, 30 mM NaF, 1% BSA) or a ligand solution having a twice higher concentration and 40 μL of 10 nmol/L [^3H]-PhS1P (5,5,6,6,-[…] phytosphingosine 1-phosphate: This was prepared in the following manner. A compound (anti-7-tert-butyl (4S)-4-[(1S,2R)-1-(benzyloxy)-2-hydroxyhexadec-3-yn-1-yl]-2,2-dimethyl-1,3-oxazolizine-3-carboxylate) prepared in accordance with a method reported in a document (Tetrahedron Lett., 38(34), 6027-6030 (1997)) was reacted with benzyl bromide in tetrahydrofuran in the presence of potassium hexamethyldisilylamide to thereby protect the hydroxy group of the compound. Then, it was treated in hydrogen chloride/methanol solution to remove an acetonide group. The compound thus obtained was reacted with N,N-diethyl-1,5-dihydro-2,4,3-benzodioxaphosphepin-3-amine in dichloromethane in the presence of tetrazole and then oxidized with m-chloroperbenzoic acid. Then, it was reacted in the presence of ASCA-2 catalyst (manufactured by NE Chemcat, 4.5% palladium-0.5% platinum catalyst carried on active carbon, see, Fine Chemical, Oct. 1, 2002, pages 5 to 14) in methanol under a tritium atmosphere. The obtained compound was treated with a 4 N hydrogen chloride/1,4-dioxane solution in dichloromethane to thereby obtain the desired compound) were added. Further, 40 μl of the membrane fraction solution was added and reacted at room temperature for 60 minutes. […] Then, 50 μl/well of Micro Scint 20 was added and the plate was covered with Top Seal-P. Then the radioactivity was measured with Top Count (Perkin Elmer).

T1 sequence (P21453 whole entry): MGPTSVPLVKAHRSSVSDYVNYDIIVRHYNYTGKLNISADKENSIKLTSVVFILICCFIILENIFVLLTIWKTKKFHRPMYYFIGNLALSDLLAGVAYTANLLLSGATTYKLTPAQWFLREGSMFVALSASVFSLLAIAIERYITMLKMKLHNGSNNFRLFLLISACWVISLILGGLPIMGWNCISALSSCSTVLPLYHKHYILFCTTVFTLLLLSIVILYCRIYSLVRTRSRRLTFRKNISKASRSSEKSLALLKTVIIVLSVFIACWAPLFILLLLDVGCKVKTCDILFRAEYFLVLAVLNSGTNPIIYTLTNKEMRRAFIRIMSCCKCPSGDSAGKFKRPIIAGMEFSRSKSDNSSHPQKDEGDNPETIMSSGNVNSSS

Row | IC50 (EDG-6) [nM] | Structure (SMILES) | EC50 (Human EDG-1) [nM]
1 | – | c1ccc(CCCCOc2ccc3cc(CN4CCCCC4)ccc3c2)cc1 [Example 5, 1-{[6-(4-phenylbutoxy)-2-naphthyl]methyl}piperidine] | 7800
2 | – | O=C(NS(=O)(=O)c1ccccc1)C1CN(Cc2ccc3cc(OCCCc4ccccc4)ccc3c2)C1 [Example 6] | 250
3 | 26 | CCNCC1=C(C)c2ccc(OCC(C)Cc3ccc(F)cc3)cc2CC1 (centres unmarked) [Example 27, N-({6-[3-(4-fluorophenyl)-2-methylpropoxy]-1-methyl-3,4-dihydro-2-naphthalenyl}methyl)ethanamine] | –
4 | 98 | COc1cc(CC(C)C)ccc1COc1ccc2c(c1)CCC(CN1CC(CO)C1)=C2C [Example 37-1, [1-({6-[(4-isobutyl-2-methoxybenzyl)oxy]-1-methyl-3,4-dihydro-2-naphthalenyl}methyl)-3-azetidinyl]methanol] | –
5 | 81 | COc1cc(CC(C)C)ccc1COc1ccc2c(c1)CCC(CN1CCN(c3ccccn3)CC1)=C2C [Example 66-24, 1-({6-[(4-isobutyl-2-methoxybenzyl)oxy]-1-methyl-3,4-dihydro-2-naphthalenyl}methyl)-4-(2-pyridinyl)piperazine] | –

Reference: patent US8653305B2, “Compound having S1P receptor binding potency and use thereof” (Ono Pharmaceutical Co., Ltd., priority 2004, dated 2014)
